Measured values: patent US5529998A, “Benzoxazolyl- and benzothiazolyloxazolidinones” (Bayer Aktiengesellschaft, priority 1994, dated 1996)
Converted amounts (≈) assume the structure as drawn.

Assays:
Test in all cases: MIC, antibacterial activity (series dilution)
Format in all cases: cell-based
[1] = system: E. coli Neumann; conditions: Escherichia coli, 37° C., about 20 hours
Method: (§1) The MIC values were determined with the aid of the microdilution method in BH medium. Each test substance was dissolved in the nutrient medium. A concentration series of the test substances was prepared in the microtiter plate by serial dilution. Overnight cultures of the pathogens, which were first diluted 1:250 in the nutrient medium, were used for the inoculation. 100 μl portions of inoculation solution were added to 100 μl of the dilute nutrient solutions containing the active compound. The microtiter plates were incubated at 37° C. and read off after about 20 hours. The MIC value (μg/ml) indicates the lowest concentration of active compound at which no growth was detectable. The minimum inhibitory concentrations (MIC) were determined by the series dilution method on Iso-Sensitest agar (Oxoid). A series of agar plates which contained concentrations of the active compound which decreased by two-fold dilution each time was prepared for each test substance. The agar plates were inoculated with a multipoint inoculator (Denley). Overnight cultures of the pathogens which had been diluted beforehand such that each inoculation point contained about 10^4 colony-forming particles were used for the inoculation. The inoculated agar plates were incubated at 37° C. and the germ growth was read off up to about 20 hours. The MIC value (μg/ml) indicates the lowest concentration of active compound at which no growth was detectable with the naked eye.

[2] = system: Klebs. 57 USA; conditions: 37° C., about 20 hours
Method: as §1

[3] = system: Psdm. Bonn; conditions: 37° C., about 20 hours
Method: as §1

[4] = system: Staph 25701; conditions: 37° C., about 20 hours
Method: as §1

[5] = system: Staph. 133; conditions: 37° C., about 20 hours
Method: as §1

[6] = system: Staph. 48N; conditions: 37° C., about 20 hours
Method: as §1

[7] = system: Staph. 9TV; conditions: 37° C., about 20 hours
Method: as §1

Structure (SMILES)	MIC [1] [µg/mL]	MIC [2] [µg/mL]	MIC [3] [µg/mL]	MIC [4] [µg/mL]	MIC [5] [µg/mL]	MIC [6] [µg/mL]	MIC [7] [µg/mL]
CSc1nc2ccc(N3C[C@H](CNC(C)=O)OC3=O)cc2s1 [Example 24, (5S )-3-(2-Methylthio-benzo[4,5-d]thiazol-6-yl)-5-acetylaminomethyl-oxazolidin-2-one]	> 64	> 64	> 64	0.25 (≈ 0.741 µM)	2 (≈ 5.93 µM)	1 (≈ 2.96 µM)	0.25 (≈ 0.741 µM)
CC(=O)NC[C@H]1CN(c2ccc3nc(C)oc3c2)C(=O)O1 [Example 25, (5S)-3-(2-Methyl-benzo[4,5-d]oxazol-6-yl)-5-acetamino-methyl-oxazolidin-2-one]	> 64	> 64	> 64	1 (≈ 3.46 µM)	2 (≈ 6.91 µM)	1 (≈ 3.46 µM)	1 (≈ 3.46 µM)
CC(=O)NC[C@H]1CN(c2ccc3nc(C)sc3c2)C(=O)O1 [Example 26]	> 64	> 64	> 64	1 (≈ 3.27 µM)	2 (≈ 6.55 µM)	1 (≈ 3.27 µM)	1 (≈ 3.27 µM)
CC(=O)NC[C@H]1CN(c2ccc3nc([S+](C)[O-])sc3c2)C(=O)O1 (stereo partly drawn) [Example 32, (5S)-3-(2-Methylsulphinyl-benzo[4,5-d]-thiazol-6-yl)-5-acetylaminomethyl-oxazolidin-2-one]	> 64	> 64	> 64	1 (≈ 2.83 µM)	1 (≈ 2.83 µM)	2 (≈ 5.66 µM)	0.5 (≈ 1.41 µM)
CC(=O)NC[C@H]1CN(c2ccc3nc(S(=O)(=O)Cc4ccccc4)sc3c2)C(=O)O1 [Example 33, (5S)-3-(2-Benzylsulphonyl-benzo[4,5-d]thiazol-6-yl)-5-acetylaminomethyloxazolidin-2-one]	> 64	> 64	> 64	2 (≈ 4.49 µM)	4 (≈ 8.98 µM)	2 (≈ 4.49 µM)	4 (≈ 8.98 µM)
CC(=O)NC[C@H]1CN(c2ccc3nc([S+]([O-])Cc4ccccc4)sc3c2)C(=O)O1 (stereo partly shown) [Example 36]	> 64	> 64	> 64	4 (≈ 9.31 µM)	4 (≈ 9.31 µM)	4 (≈ 9.31 µM)	2 (≈ 4.66 µM)
CC(=O)NC[C@H]1CN(c2ccc3nc(S(C)(=O)=O)sc3c2)C(=O)O1 [Example 37]	> 64	> 64	> 64	1 (≈ 2.71 µM)	2 (≈ 5.41 µM)	2 (≈ 5.41 µM)	1 (≈ 2.71 µM)
